In a melting point compilation (Tetko et al.; mined from patent text by program, amines drawn as free bases though some values may be those of a salt):

Structure (SMILES)	melting point
CC(=O)Nc1ccc(OC2SCC(OC(C)=O)C(OC(C)=O)C2OC(C)=O)cn1 (centres undefined)	132 to 133 °C
CCCCOc1nc(NC2=CCC(=C=C3CC4CCC3(C)C4(C)C)C=C2)nc(NC2=CCC(=C=C3CC4CCC3(C)C4(C)C)C=C2)n1	181 °C
CC(C)N1CCC(COc2ncc(C(=O)c3ccc(Cl)cc3)n2C)CC1	126 to 127 °C
CCOC(=O)C=C(NC(=O)Nc1cc(OC(C)C)c(Cl)cc1F)C(F)(F)F	144 to 146 °C
CN(C)Cc1ccc(COCC(N)=O)s1	86.5 to 95 °C
CC(=O)c1ccc(C2CC(C)(C)CC(C)(C)C2)cc1	54 °C
C1=C(c2ccc3c(c2)OCCO3)CCN(CCc2cccc3ccccc23)C1	170 to 180 °C
COc1cccc(CN2CCN(CC(=O)N3CC=C(c4cccc(C(F)(F)F)c4)n4cnc(C#N)c43)CC2)c1	131 to 133 °C
Nc1ncc(-c2ccccc2)nc1Sc1ccccc1	109 to 112 °C
COC(=O)[C@H](Cc1cccc2ccccc12)NC(=O)[C@H](CC(=O)OC(C)(C)C)NC(=O)c1cccc(NC(=O)OCc2ccccc2)c1	95 to 98 °C
CCCCS(=O)(=O)N(Cc1ccc(-c2ccccc2-c2nnn[nH]2)cc1)[C@@H](C)C(=O)O	90 °C
O=C(NC(=O)c1ccccc1Cl)Nc1cc(C(F)(F)F)c(Cl)cc1Br	185 °C
CC1=NN(C(=O)NS(=O)(=O)c2ncccc2C(F)(F)F)C(C)(c2ccccc2)C1 (centres undefined)	152 to 153 °C
Cc1ccc2c(c1)C(c1ccccc1)CC(N1CCN(C3CC(c4ccccc4)c4cc(C)ccc4O3)CC1)O2 (centres undefined)	241 °C
Cn1c(N2CCOC(c3nc(-c4ccccc4)no3)C2)nc(-c2ccncn2)cc1=O (centres undefined)	167 °C
CCC(=NNc1ccc(C2=NNC(=O)CC2)cc1)c1ccncc1	235 to 237 °C
CC(=O)OC1CSC(Oc2cc(F)ccc2-c2cccnc2)C(OC(C)=O)C1OC(C)=O (centres undefined)	66 °C
COc1ccc(Nc2ncnc(NCc3ccco3)n2)cc1	184 to 186 °C
Cc1ccc(C)c(OCc2ccccc2C(=O)c2cc(C)no2)c1	106 to 108 °C
CN(C)CC(O)C(c1ccccc1)c1ccc(F)cc1 (centres undefined)	55 to 57 °C
CS(=O)(=O)Nn1c(=O)[nH]c2cc(C(F)(F)F)c(C3CCCO3)cc2c1=O (centres undefined)	254 to 257 °C
CCC=Nc1cc(CO)cc(Nc2c3ccccc3nc3ccccc23)c1	262 to 263 °C
CS(=O)(=O)N(c1cccc(C(=O)NCc2nc[nH]n2)c1)C1CN(C(c2ccc(Cl)cc2)c2ccc(Cl)cc2)C1	210 °C
Cc1c(CCC(=O)O)ccc2c3ccccc3n(Cc3ccccc3)c12	160 to 162 °C
O=C(Nc1cccc([N+](=O)[O-])c1)c1ccc([N+](=O)[O-])cc1	229 to 232 °C

Structure (SMILES)	melting point
C1COCCNCCSCCN1	74 to 76 °C
CCCc1cnc2c(NC(=O)c3c(Cl)cccc3Cl)cccc2c1-n1ccnc1	160 to 161 °C
CCCCCCCNC(=O)Nc1ccc([N+](=O)[O-])cc1C(=O)NC1CCN(C(c2ccccc2)c2ccccc2)CC1	165 to 166 °C
Cc1c(CC(=O)N[C@@H](CO)C(=O)O)cc(-c2ccc(S(C)(=O)=O)cc2)n1-c1ccc(F)cc1	120 °C
CC1CCC(=O)N1CC(=O)NCCN1C(C)CCCC1C (centres undefined)	115 to 116 °C
CCCCCCCCCCCCCCCCCNC(=O)O[C@@H]1CCO[C@H]1COCc1ccccc1 (relative stereo)	54 to 56 °C
CN1C(=O)N2C(=NC1(C)C)N(C(=O)Nc1ccc(Cl)cc1)c1ccccc12	206 to 211 °C
CC(=O)OC1CSC(Oc2cccc(-c3ccncc3)c2)C(OC(C)=O)C1OC(C)=O (centres undefined)	112 °C
Cc1cccc2nc3c(c(C)nn3-c3ccccn3)c(Cl)c12	167 to 169 °C
CN1CCCC(CC(C#N)(Cn2cncn2)c2ccc(Cl)cc2Cl)C1 (centres undefined)	125 to 126 °C
Clc1ccc2nc(-c3ccccc3)oc2n1	150 to 151 °C
c1ccc(-c2nc3ccccn3c2-c2ccnc(-c3ccc(N4CCOCC4)cc3)c2)nc1	145 °C
CC(C)(C)OC(=O)C[C@H](NC(=O)CNC(=O)c1csc(NC(=O)NCc2ccccc2)n1)C(=O)NCc1ccccc1	123 °C
Oc1ccc(C(F)(F)F)c2ccccc12	132 to 133 °C
CCOC(=O)COc1ccc(-c2nn(-c3ccccc3)c3ncccc23)cc1	118 to 120 °C
NCC1CC1CCC(=O)Nc1ccc(NC(=O)CCC2CC2CN)c2c1C(=O)c1ccccc1C2=O (centres undefined)	208 to 210 °C
Nc1ccc(-c2noc(-c3cnn4c(C(F)(F)F)cc(-c5ccc(Cl)c(Cl)c5)nc34)n2)cn1	289 °C
CCCCC[C@H]1CC[C@H](CCC2CCC(c3ccc(Oc4ccc(N)cc4)cc3)(c3ccc(Oc4ccc(N)cc4)cc3)CC2)CC1	171 to 172 °C
Cn1cnnc1COc1nn2c(-c3cc(Cl)on3)nnc2c2ccccc12	239 to 241 °C
CCN1CC(C(=O)N2CCOCC2)Cc2cccc(CSc3nc4ccccc4[nH]3)c21 (centres undefined)	194 °C
CC(=CCc1c(C)nc(N)nc1N)c1cc(Cl)ccc1Cl	172 to 174 °C
O=C1NC(O)C2CN(Cc3ccccc3)CC12 (centres undefined)	138 °C
CCCCCCCCCCCCCCCCCCOC(=O)COc1ccc(C2C(=O)Oc3c(C)cc(C)cc32)cc1 (centres undefined)	57 to 59 °C
Nc1c(Cl)ncnc1NCc1ccc(CO)o1	137 °C
